Experiment [1] relates to H2S generation in carotid bodies. The experiment in a line: Measurement of H2S levels in carotid body homogenates, rats. The format is biochemical. As for the experimental part: (§1) H2S levels in the carotid body were assayed as follows. Briefly, carotid bodies were pooled (4 carotid bodies per experiment in rats; 6 carotid bodies per experiment in mice) and tissue homogenates were prepared in 100 mM potassium phosphate buffer, pH 7.4. The enzyme reaction was carried out in sealed tubes flushed with either N2 or different levels of O2—N2 gas mixtures. The PO2 of the reaction medium was determined by blood gas analyzer (ABL5). The assay mixture in a total volume of 500 μl contains (in final concentration): L-cysteine, (800 μM); pyridoxal 5′-phosphate, (80 μM); potassium phosphate buffer, pH 7.4, (100 mM); and tissue homogenate (2 μg protein). The reaction mixture was incubated at 37° C. for 1 h and at the end of the reaction, alkaline zinc acetate (1% w/v; 250 up and trichloroacetic acid (10% v/v) was added sequentially to trap H2S generated and to stop the reaction, respectively. The zinc sulfide formed was reacted sequentially with acidic N,N-dimethyl-p-phenylenediamine sulfate (20 μM) and ferric chloride (30 μM) and the absorbance was measured at 670 nm using a micro-plate reader. A standard curve relating the concentration of Na2S and absorbance was used to calculate H2S concentration and expressed as nanomoles of H2S formed per hour per milligram protein.
(§2) Rats and mice were treated with DL-propargylglycine (Sigma; 200 mg/kg) or Cr(III) Mesoporphyrin IX chloride (CrM459, Frontier Scientific, Logan, Utah; 1 mg/kg) intraperitoneally 2-3 h before acute experiments on anesthetized animals. NaHS (Sigma chemicals, MO) was given acutely to the ex vivo carotid body preparation. In the in vitro assays for H2S measurements, known concentrations of HO-2 inhibitor and CO donor (tricarbonyldichlororuthenium, [Ru(CO)3Cl2]2, Sigma, USA) were added to cell lysates. All solutions with drugs were prepared fresh during the experiments.

A short description of experiment [2]: Respiration (rate and depth) in spontaneously hypertensive and Sprague-Dawley rats, whole body polysomnography. Conditions: FIG. 14. The format is in vivo. As to the method:
FIG. 14. […] Spontaneously hypertensive rats (SHR) were treated with the CSE inhibitor propargylglycine. Their respiration was measured using whole body polysomnography. The control animals were Sprague-Dawley rats.

In experiment [3] the test system is carotid body. Briefly: Carotid body sensory activity ex vivo (carotid sinus nerve single unit discharge), rats. As for the experimental part: (§3) Sensory activity from carotid bodies ex vivo was recorded as previously described (Peng, Y. J., et al., PNAS, 2003, 100, 10073-78; Peng Y. J., et. al., J. Physiol., 2006, 577, 705-716). Briefly, carotid bodies along with the sinus nerves were harvested from anaesthetized mice or rats, placed in a recording chamber (volume, 250 μl) and superfused with warm physiological saline (35° C.) at a rate of 2.5 ml/min having the following composition (mM): NaCl (140), KCl (5.4), CaCl2 (2.5), MgCl2 (0.5), HEPES (5.5), D-glucose (11), sucrose (5), and the solution was bubbled with 100% O2 and pH was adjusted to 7.35. Carotid bodies were challenged with graded hypoxia by switching the perfusate equilibrated with gas mixtures containing varying levels of O2. For assessing the carotid body response to CO2, bicarbonate-buffered medium equilibrated with either […] (baseline) or 90% 02+10% CO2 balance N2. Clearly identifiable action potentials (2-3 active units) were recorded from one of the nerve bundles with a suction electrode and stored in a computer via a data acquisition system (PowerLab/8P, AD Instruments Pty Ltd, Australia). ‘Single’ units were selected based on the height and duration of the individual action potentials using a spike discrimination program (Spike Histogram Program, Power Laboratory, AD Instruments). In each carotid body, at least two chemoreceptor units were analyzed. The PO2, and PCO2 of the superfusion medium were determined by a blood gas analyzer (ABL 5, Radiometer, Copenhagen, Denmark).
as §2
(§4) In unsedated mice RR (breaths/min), VT (μl), minute ventilation [VE (ml/min)=RR×VT], O2 consumption (VO2, ml/min), and CO2 production (VCO2 ml/min) were analyzed. Respiratory variables (RR and VT) were averaged for at least 20 consecutive breaths over 5 min of inspired O2 and CO2 challenge. VT, VE, VO2 and VCO2 were normalized to body weight. Carotid body sensory activity (discharge from ‘single’ units) was averaged during 3 min of baseline and during the 3 min of gas challenge and expressed as impulses per second unless otherwise stated. The number of secretory events and the amount of catecholamine secreted per secretory event were analyzed in each experiment and the data were expressed as total catecholamines secreted. Average data are presented as mean±S.E.M. Statistical significance was assessed by either ANOVA or two-way ANOVA with repeated measures followed by Tukey's test. p values <0.05 were considered significant.

The test system of experiment [4] is H2S generation in adrenal glands. The experiment in a line: H2S generation in adrenal glands of rat pups. Conditions: PAG treated rat pups vs vehicle; data not shown. It counts as biochemical, rats.
Experiment [5] concerns neonatal adrenal medullary chromaffin cells (AMC). Briefly: Catecholamine secretion from neonatal adrenal medullary chromaffin cells by amperometry. The format is cell-based, rats. Conditions: 40 mM K+, AMC from PAG treated rat pups; FIG. 6B. As for the experimental part:
The protocols for preparation of chromaffin cells and measurements of catecholamine secretion by amperometry are as follows. Briefly, adrenal glands were harvested from anesthetized mice and rats aged P10. Chromaffin cells were enzymatically dissociated, plated on collagen (type VII; Sigma) coated coverslips, and maintained at 37° C. in a 5% CO2 incubator for 12-24 h. The growth medium consisted of F-12 K medium (Invitrogen) supplemented with 10% horse serum, 5% fetal bovine serum, and 1% Penicillin/streptomycin/glutamine cocktail (Invitrogen). Catecholamine secretion from chromaffin cells was monitored by amperometry using carbon fiber electrodes. […] Normoxic solutions were equilibrated with room air (PO2˜146 mmHg), and hypoxic solutions were equilibrated with appropriate gas mixtures that yielded medium PO2, of ˜30-40 mmHg as measured by blood gas analyzer. […]
In unsedated mice RR (breaths/min), VT (μl), minute ventilation [VE (ml/min)=RR×VT], O2 consumption (VO2, ml/min), and CO2 production (VCO2 ml/min) were analyzed. […] Carotid body sensory activity (discharge from ‘single’ units) was averaged during 3 min of baseline and during the 3 min of gas challenge and expressed as impulses per second unless otherwise stated. […]

In experiment [6] the test system is carotid body. The experiment in a line: Carotid body sensory activity ex vivo (carotid sinus nerve single unit discharge), mice. As to the method: as §3, §2, §4
In experiment [7] the test system is H2S generation in carotid bodies. Briefly: Measurement of H2S levels in carotid body homogenates, mice. It counts as biochemical. As to conditions: 1 μM, normoxia, FIG. 5A. As for the experimental part:
as §1, with “protein. […]” for “protein.”

The mark [8] stands for this setting: systemic administration (1 mg/kg i.p.), CSE+/+ mice, FIG. 5B-D.

Turning to `C#CCC(N)C(=O)O` (racemic) [PAG, DL-propargylglycine], the “basal H2S levels in carotid body” value in experiment [1] (PAG treated rats (vehicle=266±61)) was 147±50 nmol/h/mg protein. Moreover, in experiment [1] (PAG treated rats vs vehicle, p<0.05), the “reduction of basal H2S levels in carotid body” value is 55%. Besides, the “hypoxia-evoked H2S generation in carotid bodies” value in experiment [1] (PAG treated rats, graded hypoxia, FIG. 3A) is reported as “nearly absent”. Moreover, the respiration frequency result in experiment [2] (control Sprague-Dawley rats treated with PAG) is recorded as “reducing respiration frequency very slightly”. The breathing pattern entry in experiment [2] (spontaneously hypertensive rats (SHR) treated with PAG) is “normalized”. Also, the “carotid body response to CO2” value in the experiment with carotid body [3] (PAG treated rats (same rats tested for hypoxia), FIG. 3C) is “significantly augmented”. Further, the “carotid body sensory response to hypoxia” value is on record as “significantly attenuated” in the experiment on carotid body [3] (PAG treated rats vs vehicle, FIG. 3B) and “loss of the hypoxic response” in the experiment with carotid body [6] (CSE+/+ mice treated systemically with PAG (200 mg/kg i.p. 2-3 h before), FIG. 9). Moreover, in experiment [4], the “hypoxia-induced increase of H2S generation in adrenal glands” value is “greatly reduced or absent”. The “K+-evoked catecholamine secretion” value in experiment [5] was “unaffected”. Besides, the “carotid body hypoxic response, acute application” value in the experiment with carotid body [6] (acute application of PAG to the carotid body) is listed as “ineffective in preventing the hypoxic response”.

`CCC1=C(C)c2cc3[n-]c(cc4nc(cc5[n-]c(cc1n2)c(C)c5CCC(=O)O)C(CCC(=O)O)=C4C)c(C)c3CC.[Cl][Cr+2]` [Cr (III) MP, Cr (III) mesoporphyrin IX chloride]: the “H2S generation in carotid bodies under normoxia” value in experiment [1] (rat carotid bodies, 1 and 100 μM, FIG. 13A) is “enhanced”. In addition, the “increase of H2S generation in carotid bodies” value in experiment [7] (CSE+/+ mice) is given as 6 fold; in experiment [7] (CSE−/− (mutant) mice) it was “abolished”. For the same compound, the “baseline carotid body activity” value in the experiment on carotid body [6] (setting [8]) is reported as “significantly increased”. In the experiment with carotid body [6] (setting [8]), the “carotid body hypoxic response” value is “potentiated”.

Regarding `N[C@@H](CS)C(=O)O` [L-cysteine], the “effect on carotid body hypoxic response” value in the experiment with carotid body [3] (100 μM L-cysteine, isolated rat carotid body, FIG. 10) is “no significant effect”.

For the compound `[Na+].[SH-]` [NaHS], in the experiment on carotid body [3] (100 μM NaHS, rats, FIG. 4B), the “carotid body response in Ca2+-free and EGTA containing medium” value is recorded as “abolished”. The “onset of carotid body response after application” value with carotid body [3] (NaHS, activity returned to baseline after termination, FIG. 4A) is listed as “within seconds”. The “carotid body sensory activity” value in the experiment on carotid body [3] (exogenous NaHS, rats, FIG. 4A) was “augmented”; with carotid body [6] (exogenous NaHS 100 μM, CSE+/+ and CSE−/− mice, FIG. 11), “augmented”.

Consider `O=[C]=[Ru]([Cl])([Cl])(=[C]=O)=[C]=O` [[Ru(CO)3Cl2]2, tricarbonyldichlororuthenium], for which, in experiment [1] (rat carotid bodies, hypoxia PO2=38 mmHg, 1 and 10 μM, FIG. 13B), the “H2S generation in carotid bodies under hypoxia” value was “inhibited H2S generation by hypoxia nearly to the levels seen under normoxia”.

As to `COc1ccc(Cl)cc1C(=O)NCCc1ccc(S(=O)(=O)NC(=O)NC2CCCCC2)cc1` [glibenclamide], in the experiment with carotid body [3] (100 μM glibenclamide, 100 μM NaHS, rats, FIG. 12), the “prevention of carotid body response to NaHS” value is “failed to prevent”. Also, the “prevention of carotid body response to hypoxia” value in the experiment with carotid body [3] (100 μM glibenclamide, hypoxia PO2=42 mmHg, rats, FIG. 12) is listed as “failed to prevent”.

These data come from patent US10688096B2, “Methods for treatment of sleep-related breathing disorders” (The University of Chicago, priority 2010, dated 2020).
